Assay results published in PubChem BioAssay (NCI).
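All cell lines were grown in 96-well plates and treated with compound for 48 hours. TGI marks complete inhibition of growth.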

Experiments:
Assay in all cases: NCI tumour cell line growth inhibition, 48 h
[1] = tested on: CAKI-1 renal
[2] = tested on: IGROV1 ovarian
[3] = tested on: SN12C renal
[4] = tested on: TK-10 renal
[5] = tested on: PC-3 prostate
[6] = tested on: HL-60(TB) leukemia
[7] = tested on: SK-MEL-28 melanoma
[8] = tested on: MDA-MB-435
[9] = tested on: HCT-116 colon
[10] = tested on: MALME-3M melanoma
[11] = tested on: M14 melanoma
[12] = tested on: 786-0 renal
[13] = tested on: U251 CNS
[14] = tested on: SW-620 colon
[15] = tested on: NCI-H522 lung
[16] = tested on: HS 578T breast
[17] = tested on: K-562 leukemia
[18] = tested on: MCF7 breast
[19] = tested on: CCRF-CEM leukemia
[20] = tested on: T-47D breast
[21] = tested on: UACC-257 melanoma
[22] = tested on: COLO 205 colon
[23] = tested on: A498 renal
[24] = tested on: UO-31 renal
[25] = tested on: A549 NSCLC
[26] = tested on: UACC-62 melanoma
[27] = tested on: NCI-H226 lung
[28] = tested on: SR leukemia
[29] = tested on: HOP-92 NSCLC
[30] = tested on: SF-268 CNS
[31] = tested on: DU-145 prostate
[32] = tested on: HOP-62 NSCLC
[33] = tested on: RPMI-8226 leukemia
[34] = tested on: OVCAR-8 ovarian
[35] = tested on: NCI-H460 lung
[36] = tested on: HT29 colon
[37] = tested on: ACHN renal
[38] = tested on: LOX IMVI melanoma
[39] = tested on: SK-MEL-5 melanoma
[40] = tested on: RXF 393 renal
[41] = tested on: SNB-75 CNS
[42] = tested on: NCI-H23 lung
[43] = tested on: SF-295 CNS
[44] = tested on: OVCAR-5 ovarian
[45] = tested on: SNB-19 CNS
[46] = tested on: OVCAR-3 ovarian
[47] = tested on: EKVX NSCLC
[48] = tested on: SK-MEL-2 melanoma
[49] = tested on: MDA-N
[50] = tested on: NCI/ADR-RES ovarian
[51] = tested on: KM12 colon
[52] = tested on: SK-OV-3 ovarian
[53] = tested on: MDA-MB-231 breast
[54] = tested on: HCT-15 colon
[55] = tested on: BT-549 breast
[56] = tested on: OVCAR-4 ovarian
[57] = tested on: HCC-2998 colon
[58] = tested on: MOLT-4 leukemia
[59] = tested on: SF-539 CNS

## Cc1cc2c(=O)[nH]c(N)nc2nc1C
[1]
  TGI: > 100 µM
[2]
  TGI: > 100 µM
[3]
  TGI: > 100 µM
[4]
  TGI: > 100 µM
[5]
  TGI: > 100 µM
[6]
  TGI: > 100 µM
[7]
  TGI: > 100 µM
[8]
  TGI: > 100 µM
[9]
  TGI: > 100 µM
[10]
  TGI: > 100 µM
[11]
  TGI: > 100 µM
[12]
  TGI: > 100 µM
[13]
  TGI: > 100 µM
[14]
  TGI: > 100 µM
[15]
  TGI: > 100 µM
[16]
  TGI: > 100 µM
[17]
  TGI: > 100 µM
[18]
  TGI: > 100 µM
[19]
  TGI: > 100 µM
[20]
  TGI: > 100 µM
[21]
  TGI: > 100 µM
[22]
  TGI: > 100 µM
[23]
  TGI: > 100 µM
[24]
  TGI: > 100 µM
[25]
  TGI: > 100 µM
[26]
  TGI: > 100 µM
[27]
  TGI: > 100 µM
[28]
  TGI: > 100 µM
[29]
  TGI: > 100 µM
[30]
  TGI: > 100 µM
[31]
  TGI: > 100 µM
[32]
  TGI: > 100 µM
[33]
  TGI: > 100 µM
[34]
  TGI: > 100 µM
[35]
  TGI: > 100 µM
[36]
  TGI: > 100 µM
[37]
  TGI: > 100 µM
[38]
  TGI: > 100 µM
[39]
  TGI: > 100 µM
[40]
  TGI: > 100 µM
[41]
  TGI: > 100 µM
[42]
  TGI: > 100 µM
[43]
  TGI: > 100 µM
[44]
  TGI: > 100 µM
[45]
  TGI: > 100 µM
[46]
  TGI: > 100 µM
[47]
  TGI: > 100 µM
[48]
  TGI: > 100 µM
[49]
  TGI: > 100 µM
[50]
  TGI: > 100 µM
[51]
  TGI: > 100 µM
[52]
  TGI: > 100 µM
[53]
  TGI: > 100 µM
[54]
  TGI: > 100 µM
[55]
  TGI: > 100 µM
[56]
  TGI: > 100 µM

## CCCCCCCCCCCCCCCCOc1ccc(/C=C/C2=[N+](CCCl)CCO2)cc1
[1]
  TGI: > 100 µM
[2]
  TGI: > 100 µM
[3]
  TGI: > 100 µM
[4]
  TGI: > 100 µM
[5]
  TGI: > 100 µM
[6]
  TGI: 98.6 µM
[7]
  TGI: > 100 µM
[8]
  TGI: > 100 µM
[9]
  TGI: > 100 µM
[10]
  TGI: > 100 µM
[11]
  TGI: > 100 µM
[12]
  TGI: > 100 µM
[13]
  TGI: > 100 µM
[14]
  TGI: > 100 µM
[15]
  TGI: > 100 µM
[16]
  TGI: > 100 µM
[17]
  TGI: > 100 µM
[18]
  TGI: > 100 µM
[19]
  TGI: > 100 µM
[20]
  TGI: > 100 µM
[21]
  TGI: > 100 µM
[22]
  TGI: > 100 µM
[23]
  TGI: > 100 µM
[24]
  TGI: > 100 µM
[25]
  TGI: > 100 µM
[57]
  TGI: > 100 µM
[26]
  TGI: > 100 µM
[27]
  TGI: > 100 µM
[28]
  TGI: 92.5 µM
[29]
  TGI: > 100 µM
[31]
  TGI: > 100 µM
[32]
  TGI: > 100 µM
[58]
  TGI: > 100 µM
[33]
  TGI: > 100 µM
[34]
  TGI: > 100 µM
[35]
  TGI: > 100 µM
[36]
  TGI: > 100 µM
[37]
  TGI: > 100 µM
[38]
  TGI: > 100 µM
[39]
  TGI: > 100 µM
[41]
  TGI: > 100 µM
[59]
  TGI: > 100 µM
[43]
  TGI: > 100 µM
[44]
  TGI: > 100 µM
[45]
  TGI: > 100 µM
[46]
  TGI: > 100 µM
[47]
  TGI: > 100 µM
[48]
  TGI: > 100 µM
[49]
  TGI: > 100 µM
[50]
  TGI: > 100 µM
[51]
  TGI: > 100 µM
[52]
  TGI: > 100 µM
[53]
  TGI: 83.5 µM
[54]
  TGI: > 100 µM
[55]
  TGI: > 100 µM
[56]
  TGI: > 100 µM

## Nc1c2c(nc3ccccc13)CCCc1ccccc1-2
[1]
  TGI: 40.9 µM
[2]
  TGI: 26.3 µM
[3]
  TGI: 39.5 µM
[4]
  TGI: 18.8 µM
[5]
  TGI: 40.5 µM
[6]
  TGI: 21.4 µM
[7]
  TGI: 25 µM
[8]
  TGI: 24.7 µM
[9]
  TGI: 19.1 µM
[10]
  TGI: 33.5 µM
[11]
  TGI: 21.6 µM
[12]
  TGI: 24.9 µM
[13]
  TGI: 24.7 µM
[14]
  TGI: 26.6 µM
[15]
  TGI: 37.2 µM
[16]
  TGI: 52 µM
[17]
  TGI: > 100 µM
[18]
  TGI: 29.2 µM
[20]
  TGI: 37.5 µM
[21]
  TGI: 27.1 µM
[22]
  TGI: 24.4 µM
[23]
  TGI: 22 µM
[24]
  TGI: 26.3 µM
[25]
  TGI: 49 µM
[57]
  TGI: 4.61 µM
[26]
  TGI: 20.8 µM
[27]
  TGI: 45.4 µM
[28]
  TGI: > 100 µM
[29]
  TGI: 22.6 µM
[30]
  TGI: 38.4 µM
[31]
  TGI: 80.3 µM
[32]
  TGI: 28 µM
[58]
  TGI: > 100 µM
[33]
  TGI: 30.4 µM
[34]
  TGI: 30.8 µM
[35]
  TGI: 14.5 µM
[36]
  TGI: 22.5 µM
[37]
  TGI: 23 µM
[38]
  TGI: 22.1 µM
[39]
  TGI: 21 µM
[40]
  TGI: 24.7 µM
[41]
  TGI: 26.6 µM
[42]
  TGI: > 100 µM
[59]
  TGI: 25.9 µM
[43]
  TGI: 24 µM
[44]
  TGI: 34.6 µM
[45]
  TGI: 52.9 µM
[46]
  TGI: > 100 µM
[47]
  TGI: 38.9 µM
[48]
  TGI: 27.1 µM
[49]
  TGI: 17.2 µM
[50]
  TGI: 69.7 µM
[51]
  TGI: 31.2 µM
[52]
  TGI: > 100 µM
[53]
  TGI: 19.8 µM
[54]
  TGI: 35.5 µM
[55]
  TGI: > 100 µM
[56]
  TGI: 84.8 µM
